Assay results reported in article PMC8151276, “An Integrated Approach toward NanoBRET Tracers for Analysis of GPCR Ligand Engagement” (Molecules, 2021).

Key:
C3AR1 = molecular target: T1, C3AR1 (Homo sapiens, UniProt Q16581); test: NanoBRET screen HiBiT-C3AR1 in HEK293; format: binding
T1 construct: purchased Promega (in-house HiBiT-GPCR construct library, NanoBRET)
T1 sequence (Q16581 1-482): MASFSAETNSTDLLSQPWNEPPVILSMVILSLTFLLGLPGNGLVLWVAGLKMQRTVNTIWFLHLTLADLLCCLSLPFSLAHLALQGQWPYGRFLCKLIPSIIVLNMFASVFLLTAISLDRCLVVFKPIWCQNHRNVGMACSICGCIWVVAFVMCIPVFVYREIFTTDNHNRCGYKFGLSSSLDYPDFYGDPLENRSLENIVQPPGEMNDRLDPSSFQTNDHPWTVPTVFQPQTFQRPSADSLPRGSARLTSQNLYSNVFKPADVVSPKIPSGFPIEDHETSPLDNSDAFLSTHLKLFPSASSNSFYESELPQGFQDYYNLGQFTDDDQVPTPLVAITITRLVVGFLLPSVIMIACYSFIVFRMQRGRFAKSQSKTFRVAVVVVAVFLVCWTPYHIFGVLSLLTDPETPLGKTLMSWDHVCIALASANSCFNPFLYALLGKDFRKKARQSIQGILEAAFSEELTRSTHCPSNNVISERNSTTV
Procedure: (§1) Each tracer candidate was screened across the entire library of HiBiT-GPCR constructs using NanoBRET as the detection modality. As depicted in Figure 4A, the specificity of interactions was evaluated through decrease in BRET due to competitive displacement of a bound tracer by excess parental compound. Each tracer was analyzed for binding to each HiBiT-GPCR fusion in the absence and in the presence of competing parental compound. Briefly, HEK293 cells were transfected with HiBiT-GPCR constructs diluted into promoterless DNA to reduce expression and maximize translocation to the cell surface. Each tracer candidate was then screened at concentrations of 1 μM and 0.1 μM across cells expressing these fusions. Cells were treated for 1.5 h with tracer either alone or in the presence of 20 μM competing parental compound (i.e., control). BRET was measured upon addition of purified LgBiT and subsequent complementation with HiBiT genetically fused to a GPCR. The specificity of interactions was assessed through a decrease in BRET signal due to competitive displacement of the bound tracer. To further gauge the robustness of these interactions, the fold response over the control (i.e., BRETtracer/BRETcontrol) was calculated. We chose a 1.5-fold response, which translates to ≥7-fold signal over noise as the minimal threshold required to score an interaction as positive. […]. Below we highlight the screening results obtained for our exemplary fluorescent tracers based on Clozapine, Amitriptyline and AZD1283.
(§2) HiBiT-GPCR DNA constructs were diluted in 10 mM Tris pH 8 to a final concentration of 0.01 μg/μL, arrayed in 96-well plates and stored at −20 °C. For transfection, HEK293 cells were suspended in Opti-MEM (without phenol red) supplemented with 2% fetal bovine serum (Seradigm) and 100 units/mL penicillin–streptomycin (Gibco) at a final concentration of 220,000 cells/mL and dispensed into white 96-well plates at 90 μL/well. Subsequent transfections and screens were carried using an Agilent Bravo Automated Liquid Handling Platform. First, the 96-well HiBiT DNA arrays were diluted 25-fold in Opti-MEM (without serum or phenol red) to a final concentration of 0.0004 μg/μL and 20 μL of the diluted DNAs were transferred into new 96-well plates. Next, promoterless carrier DNA (1 μg/μL) was diluted 25-fold (0.04 μg/μL) and then dispensed into the diluted arrays at 20 μL/well. Following brief mixing, Viafect transfection reagent (Promega) diluted 16-fold into Opti-MEM was dispensed into the plates at 40 μL/well. After mixing by pipetting, plates were incubated for 10 min on the pipetting station deck. The DNA-transfection reagent complexes were then added to plates containing cells. To facilitate the screen, 10 μL of DNA-transfection reagent complexes were added in duplicates to the top 4 and bottom 4 rows, resulting in two identical 48-well arrays per plate. Plates with transfected cells were incubated for 18–20 h at 37 °C/5% CO2. A screen of each tracer across the entire library using two different concentrations requires duplicate plates of transfected cells. Depending on the number of tracers being screened, transfections can be scaled up using the same ratios. The next day, for each tracer, four 20× screening solutions in tracer dilution buffer (Promega) were prepared: two duplicates at final concentration of 20 μM and two duplicates at a final concentration of 2 μM. A competing unmodified compound was added to one of each duplicate at a final concentration of 400 μM. The four resulting solutions were diluted 4-fold in Opti-MEM without serum or phenol red to generate 5× solutions (5 µM and 0.5 µM tracer +/− 100 μM competing compound). To screen the library, a BioTek MultiFlo FX liquid dispenser was used to dispense 22.5 µL of tracer solution to the top 4 rows and 22.5 µL tracer + competing compound solution to the 4 bottom rows. Plates were briefly mixed on an orbital shaker and incubated for 1.5 h at room temperature. […]

AVPR1B = molecular target: T2, AVPR1B (Homo sapiens, UniProt P47901); test: NanoBRET screen HiBiT-AVPR1B in HEK293; format: binding
T2 construct: purchased Promega (in-house HiBiT-GPCR construct library, NanoBRET)
T2 sequence (P47901 1-424): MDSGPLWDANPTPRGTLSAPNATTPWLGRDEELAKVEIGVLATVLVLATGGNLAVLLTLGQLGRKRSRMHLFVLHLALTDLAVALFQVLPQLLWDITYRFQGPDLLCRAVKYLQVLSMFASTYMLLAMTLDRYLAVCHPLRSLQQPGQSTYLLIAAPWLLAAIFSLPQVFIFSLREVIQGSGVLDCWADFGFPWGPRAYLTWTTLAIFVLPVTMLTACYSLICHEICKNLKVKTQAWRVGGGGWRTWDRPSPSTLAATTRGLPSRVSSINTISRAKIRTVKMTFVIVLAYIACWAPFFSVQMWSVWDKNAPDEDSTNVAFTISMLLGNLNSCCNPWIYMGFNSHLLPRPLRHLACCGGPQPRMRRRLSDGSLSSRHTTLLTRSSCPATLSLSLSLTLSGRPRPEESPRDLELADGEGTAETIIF
Procedure: as §1, §2

[1] = tracer at 0.1μM, listed as amitriptyline-b-2-NB590

Row | SMILES | NanoBRET Fold Response (C3AR1; C3AR1, tracer 0.1μM) | NanoBRET Fold Response (C3AR1; C3AR1, tracer 1μM) | NanoBRET Fold Response (AVPR1B; AVPR1B, tracer 0.1μM) | NanoBRET Fold Response (AVPR1B; AVPR1B, tracer 1μM) | further results
1 | Cc1nc2n(c(=O)c1CCN1CCC(c3noc4cc(F)ccc34)CC1)CCCC2OC(=O)NCCOCCOCCOCCOCCNC(=O)CCc1ccc2n1[B-](F)(F)[N+]1=C(c3ccc[nH]3)C=CC1=C2 (stereo not shown) [Risperidone-2-NB590] | 0.93 | 0.98 | 1.06 | 0.98 | 
2 | CCOC(=O)c1cc(C#N)c(N2CCC(C(=O)NS(=O)(=O)Cc3ccccc3/C=C/C(=O)NCCNC(=O)CCc3ccc4n3[B-](F)(F)[N+]3=C(c5ccc[nH]5)C=CC3=C4)CC2)nc1C [AZD1283-1-NB590] |  |  |  |  | NanoBRET Fold Response (C3AR1; C3AR1, 0.1μM): 1.10; NanoBRET Fold Response (C3AR1; C3AR1, 1μM): 1.09; NanoBRET Fold Response (AVPR1B; AVPR1B, 0.1μM): 0.97; NanoBRET Fold Response (AVPR1B; AVPR1B, 1μM): 1.05
3 | Cc1cc2c(s1)Nc1ccccc1N=C2N1CCN(CCCNC(=O)CCOCCOCCOCCOCCNC(=O)CCc2ccc3n2[B-](F)(F)[N+]2=C(c4ccc[nH]4)C=CC2=C3)CC1 [Olanzapine-a-2-NB590] | 1.01 | 1.01 | 1.03 | 1.17 | 
4 | COc1ccccc1N1CCN(CCCCN2C(=O)c3ccc(CNC(=O)CCOCCNC(=O)c4ccc(CNC(=O)CCc5ccc6n5[B-](F)(F)[N+]5=C(c7ccc[nH]7)C=CC5=C6)cc4)cc3C2=O)CC1 [NAN-190-3-NB590] | 0.90 | 0.93 | 1.04 | 1.04 | 
5 | CC(C)N(CC[C@H](c1ccccc1)c1cc(CCNC(=O)CCOCCOCCOCCOCCNC(=O)CCc2ccc3n2[B-](F)(F)[N+]2=C(c4ccc[nH]4)C=CC2=C3)ccc1O)C(C)C [Tolterodine-2-NB590] | 1.04 | 1.01 | 1.42 | 0.97 | 
6 | CN(C)CCC=C1c2ccccc2CCc2ccc(C(=O)NCCNC(=O)CCOCCOCCOCCOCCNC(=O)CCc3ccc4n3[B-](F)(F)[N+]3=C(c5ccc[nH]5)C=CC3=C4)cc21 [Amitriptyline-b-2-NB590] |  |  |  |  | NanoBRET Fold Response (C3AR1; [1]): 1.19; NanoBRET Fold Response (C3AR1; tracer at 1μM): 1.00; NanoBRET Fold Response (AVPR1B; [1]): 0.84; NanoBRET Fold Response (AVPR1B; tracer at 1μM, listed as amitriptyline-b-2-NB590): 1.18
7 | O=C(CCOCCOCCOCCOCCNC(=O)CCc1ccc2n1[B-](F)(F)[N+]1=C(c3ccc[nH]3)C=CC1=C2)NCCCN1CCN(C2=Nc3ccccc3Oc3ccc(Cl)cc32)CC1 [Loxapine-a-2-NB590] | 0.97 | 1.08 | 1.06 | 0.96 | 
8 | CN(C)CCC=C1c2ccccc2CCc2ccc(C(=O)NCCNC(=O)CCOCCOCCOCCOCCNC(=O)CCc3ccc4n3[B-](F)(F)[N+]3=C(c5ccc[nH]5)C=CC3=C4)cc21 [Amitriptyline-a-2-NB590] |  |  |  |  | NanoBRET Fold Response (C3AR1; tracer at 0.1μM): 0.99; NanoBRET Fold Response (C3AR1; tracer at 1μM): 1.01; NanoBRET Fold Response (AVPR1B; tracer at 0.1μM): 0.94; NanoBRET Fold Response (AVPR1B; tracer at 1μM): 1.03
9 | O=C(CCc1ccc2n1[B-](F)(F)[N+]1=C(c3ccc[nH]3)C=CC1=C2)NCCOCCOCCNC(=O)OCCOCCN1CCN(C2=Nc3ccccc3Sc3ccccc32)CC1 [Quetiapine-a-2-NB590] | 0.86 | 1.02 | 0.86 | 1.01 | 
10 | COc1ccccc1N1CCN(CCCCN2C(=O)c3ccc(CNC(=O)CCOCCOCCOCCOCCNC(=O)CCc4ccc5n4[B-](F)(F)[N+]4=C(c6ccc[nH]6)C=CC4=C5)cc3C2=O)CC1 [NAN-190-2-NB590] | 1.03 | 0.96 |  |  | 
11 | CN1CCN(C2=Nc3cc(Cl)ccc3N(CC(=O)NCCOCCOCCOCCOCCNC(=O)CCc3ccc4n3[B-](F)(F)[N+]3=C(c5ccc[nH]5)C=CC3=C4)c3ccccc32)CC1 [Clozapine-c-2-NB590] |  |  |  |  | NanoBRET Fold Response (C3AR1; C3AR1, 0.1μM tracer): 0.99; NanoBRET Fold Response (C3AR1; C3AR1, 1μM tracer): 1.00; NanoBRET Fold Response (AVPR1B; AVPR1B, 0.1μM tracer): 0.95; NanoBRET Fold Response (AVPR1B; AVPR1B, 1μM tracer): 0.84
12 | COc1ccc2[nH]c(-c3ccc(CNC(=O)CCOCCOCCOCCOCCNC(=O)CCc4ccc5n4[B-](F)(F)[N+]4=C(c6ccc[nH]6)C=CC4=C5)cc3)c(CCNC(C)=O)c2n1 [AzomelatoninICO9-2-NB590] |  |  |  |  | NanoBRET Fold Response (C3AR1; 0.1μM tracer): 0.78; NanoBRET Fold Response (C3AR1; 1μM tracer): 0.87; NanoBRET Fold Response (AVPR1B; 0.1μM tracer): 1.50; NanoBRET Fold Response (AVPR1B; 1μM tracer): 0.90
13 | O=C(CCOCCOCCOCCOCCNC(=O)CCc1ccc2n1[B-](F)(F)[N+]1=C(c3ccc[nH]3)C=CC1=C2)NCCCN1CCN(C2=Nc3cc(Cl)ccc3Nc3ccccc32)CC1 [Clozapine-a-2-NB590] |  |  |  |  | NanoBRET Fold Response (C3AR1; C3AR1, 0.1μM tracer): 1.18; NanoBRET Fold Response (C3AR1; C3AR1, 1μM tracer): 1.21; NanoBRET Fold Response (AVPR1B; AVPR1B, 0.1μM tracer): 0.98; NanoBRET Fold Response (AVPR1B; AVPR1B, 1μM tracer): 0.97
14 | CCCn1c(=O)c2[nH]c(-c3ccc(OCC(=O)NCCNC(=O)CCOCCNC(=O)c4ccc(CNC(=O)CCc5ccc6n5[B-](F)(F)[N+]5=C(c7ccc[nH]7)C=CC5=C6)cc4)cc3)nc2n(CCC)c1=O [XAC-3-NB590] | 1.15 | 0.96 | 0.90 | 1.21 | 
15 | O=C(CCc1ccc2n1[B-](F)(F)[N+]1=C(c3ccc[nH]3)C=CC1=C2)NCc1ccc(C(=O)NCCOCCOCCNCC(O)COc2cccc3ccccc23)cc1 (stereo not shown) [Propranolol-3-NB590] |  |  |  |  | NanoBRET Fold Response (C3AR1; C3AR1, 0.1μM): 1.05; NanoBRET Fold Response (C3AR1; C3AR1, 1μM): 1.07; NanoBRET Fold Response (AVPR1B; AVPR1B, 0.1μM): 0.90; NanoBRET Fold Response (AVPR1B; AVPR1B, 1μM): 1.04
16 | O=C(CCc1ccc2n1[B-](F)(F)[N+]1=C(c3ccc[nH]3)C=CC1=C2)NCc1ccc(C(=O)NCCOCCC(=O)N[C@@H]2CC[C@@]3(O)[C@H]4Cc5ccc(O)c6c5[C@@]3(CCN4CC3CC3)[C@H]2O6)cc1 [Naltrexone-3-NB590] | 0.99 | 1.02 | 1.19 | 1.17 | 
17 | CN(CCC=C1c2ccccc2CCc2ccccc21)C(=O)CCOCCOCCOCCOCCNC(=O)CCc1ccc2n1[B-](F)(F)[N+]1=C(c3ccc[nH]3)C=CC1=C2 [Amitriptyline-e-2-NB590] |  |  |  |  | NanoBRET Fold Response (C3AR1; tracer at 1μM): 1.02; NanoBRET Fold Response (AVPR1B; tracer at 1μM): 1.01
